Assay results as given in ChEMBL document CHEMBL3885861, “Open TG-GATES”.

Organism: Rattus norvegicus
Experiment: Open TG-GATES - Regimen: Daily Repeat
Assay type: toxicity, organism-based, Sprague-Dawley
Design: regimen Daily Repeat, gender Male, age 6 weeks
Conditions: in vivo, po, 0 mg/kg, route gavage, dose level Control; for APTT / Bas / Eos / Fbg / Hb / Ht / Lym / MCH / MCHC / MCV / Mono / Neu / PT / Plat / RBC / Ret / WBC: tissue Blood; for KIDNEY_L / KIDNEY_R / KIDNEY_TOTAL: tissue Kidney; for LIVER: tissue Liver; for A/G / ALP / ALT / AST / BUN / CRE / Ca / Cl / DBIL / GLC / IP / K / LDH / Na / PL / RALB / TBIL / TC / TG / TP / gamma-GTP: tissue Plasma

## C[C@H]1O[C@H](O[C@H]2[C@H](O)[C@@H](O)[C@@H](O[C@H]3[C@H](O)[C@@H](O)C(O)O[C@@H]3CO)O[C@@H]2CO)[C@H](O)[C@@H](O)[C@@H]1N[C@H]1C=C(CO)[C@@H](O)[C@H](O)[C@H]1O (some centres not stated) [ACARBOSE]
72 h, time 3 day
  TERMINAL_BW: 228.3 g
  APTT: 16.7 s
  Bas: 0%
  Eos: 1.2%
  Fbg: 274.6 mg/dL
  Hb: 13.7 g/dL
  Ht: 41.3%
  Lym: 73.2%
  MCH: 21.7 pg
  MCHC: 33.1%
  MCV: 65.4 fL
  Mono: 3.2%
  Neu: 21.4%
  PT: 13 s
  Plat: 129.5 x10_4/uL
  RBC: 632.2 x10_4/ul
  Ret: 7%
  WBC: 102.7 x10_2/uL
  KIDNEY_L: 1 g
  KIDNEY_R: 1 g
  KIDNEY_TOTAL: 2 g
  LIVER: 10.3 g
  A/G: 0.9
  ALP: 1816 IU/L
  ALT: 42.4 IU/L
  AST: 71 IU/L
  BUN: 14 mg/dL
  CRE: 0.2 mg/dL
  Ca: 10.8 mg/dL
  Cl: 104.2 meq/L
  DBIL: 0.006 mg/dL
  GLC: 173 mg/dL
  IP: 7.5 mg/dL
  K: 4 meq/L
  LDH: 86.2 IU/L
  Na: 140.6 meq/L
  PL: 144.8 mg/dL
  RALB: 2.6 g/dL
  TBIL: 0.054 mg/dL
  TC: 71.6 mg/dL
  TG: 99 mg/dL
  TP: 5.5 g/dL
  gamma-GTP: 1 IU/L
[…], time 7 day
  TERMINAL_BW: 273.8 g
  APTT: 18 s
  Bas: 0.2%
  Eos: 0.8%
  Fbg: 296.6 mg/dL
  Hb: 13.9 g/dL
  Ht: 41.6%
  Lym: 77.2%
  MCH: 21.3 pg
  MCHC: 33.3%
  MCV: 63.9 fL
  Mono: 2.6%
  Neu: 18.6%
  PT: 12.8 s
  Plat: 129.4 x10_4/uL
  RBC: 652.4 x10_4/ul
  Ret: 6.5%
  WBC: 89.4 x10_2/uL
  KIDNEY_L: 1.1 g
  KIDNEY_R: 1.1 g
  KIDNEY_TOTAL: 2.3 g
  LIVER: 13.2 g
  A/G: 0.8
  ALP: 1472.4 IU/L
  ALT: 38.4 IU/L
  AST: 66.6 IU/L
  BUN: 16.4 mg/dL
  CRE: 0.2 mg/dL
  Ca: 11 mg/dL
  Cl: 103.6 meq/L
  DBIL: 0.004 mg/dL
  GLC: 173.8 mg/dL
  IP: 8.1 mg/dL
  K: 3.8 meq/L
  LDH: 83.8 IU/L
  Na: 142.4 meq/L
  PL: 160.4 mg/dL
  RALB: 2.7 g/dL
  TBIL: 0.052 mg/dL
  TC: 83.2 mg/dL
  TG: 115.6 mg/dL
  TP: 5.8 g/dL
  gamma-GTP: 1 IU/L
[…], time 14 day
  TERMINAL_BW: 316.7 g
  APTT: 22.2 s
  Bas: 0%
  Eos: 0.8%
  Fbg: 287.8 mg/dL
  Hb: 14.6 g/dL
  Ht: 43.2%
  Lym: 76%
  MCH: 20.3 pg
  MCHC: 33.8%
  MCV: 60.1 fL
  Mono: 2%
  Neu: 20%
  PT: 13.1 s
  Plat: 124.4 x10_4/uL
  RBC: 720 x10_4/ul
  Ret: 4.4%
  WBC: 107.6 x10_2/uL
  KIDNEY_L: 1.1 g
  KIDNEY_R: 1.2 g
  KIDNEY_TOTAL: 2.3 g
  LIVER: 13.2 g
  A/G: 0.8
  ALP: 1741.6 IU/L
  ALT: 42.6 IU/L
  AST: 72.2 IU/L
  BUN: 16 mg/dL
  CRE: 0.2 mg/dL
  Ca: 10.6 mg/dL
  Cl: 105.8 meq/L
  DBIL: 0.014 mg/dL
  GLC: 188 mg/dL
  IP: 6.4 mg/dL
  K: 4.1 meq/L
  LDH: 74.6 IU/L
  Na: 142 meq/L
  PL: 161.4 mg/dL
  RALB: 2.7 g/dL
  TBIL: 0.048 mg/dL
  TC: 74.4 mg/dL
  TG: 182.4 mg/dL
  TP: 6 g/dL
  gamma-GTP: 1 IU/L
[…], time 28 day
  TERMINAL_BW: 390.9 g
  APTT: 20.5 s
  Bas: 0%
  Eos: 1.6%
  Fbg: 283.4 mg/dL
  Hb: 15.9 g/dL
  Ht: 45.7%
  Lym: 79.6%
  MCH: 19.9 pg
  MCHC: 34.8%
  MCV: 57.2 fL
  Mono: 2%
  Neu: 16.2%
  PT: 13.3 s
  Plat: 103.4 x10_4/uL
  RBC: 799.4 x10_4/ul
  Ret: 2.2%
  WBC: 93.1 x10_2/uL
  KIDNEY_L: 1.4 g
  KIDNEY_R: 1.3 g
  KIDNEY_TOTAL: 2.7 g
  LIVER: 15 g
  A/G: 0.8
  ALP: 1131.6 IU/L
  ALT: 43.4 IU/L
  AST: 69.6 IU/L
  BUN: 17.2 mg/dL
  CRE: 0.2 mg/dL
  Ca: 10.8 mg/dL
  Cl: 104.4 meq/L
  DBIL: 0.014 mg/dL
  GLC: 184.8 mg/dL
  IP: 6.4 mg/dL
  K: 4.2 meq/L
  LDH: 121 IU/L
  Na: 141.6 meq/L
  PL: 146.6 mg/dL
  RALB: 2.8 g/dL
  TBIL: 0.056 mg/dL
  TC: 66.8 mg/dL
  TG: 158.2 mg/dL
  TP: 6.2 g/dL
  gamma-GTP: 1 IU/L
